Experimental data published in ChEMBL document CHEMBL3994583, “Discovery of 4-[(5-arylidene-4-oxothiazolidin-3-yl)methyl]benzoic acid derivatives active as novel potent allosteric inhibitors of protein tyrosine phosphatase 1B: In silico studies and in vitro evaluation as insulinomimetic and anti-inflammatory agents” (Eur J Med Chem, 2017).
The source made the active and inactive calls. The rule behind the calls is not given here.

Experiments:
[1] = target: T1, Tyrosine-protein phosphatase non-receptor type 1 (Homo sapiens, UniProt P18031); experiment: Inhibition of full length recombinant human PTP1B using pNPP as substrate by spectrophotometric method
T1 sequence (P18031 whole entry): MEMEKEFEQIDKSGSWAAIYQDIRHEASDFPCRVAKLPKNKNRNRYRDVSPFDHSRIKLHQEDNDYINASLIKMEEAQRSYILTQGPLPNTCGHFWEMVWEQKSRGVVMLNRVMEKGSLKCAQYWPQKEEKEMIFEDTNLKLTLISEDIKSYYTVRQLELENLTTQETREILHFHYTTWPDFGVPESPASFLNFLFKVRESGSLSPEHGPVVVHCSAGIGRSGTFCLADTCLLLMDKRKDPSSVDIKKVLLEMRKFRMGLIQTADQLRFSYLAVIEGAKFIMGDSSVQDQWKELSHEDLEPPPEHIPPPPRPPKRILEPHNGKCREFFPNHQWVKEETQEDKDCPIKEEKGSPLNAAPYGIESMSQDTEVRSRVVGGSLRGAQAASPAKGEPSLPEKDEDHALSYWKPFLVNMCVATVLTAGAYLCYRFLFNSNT

[2] = target: T2, Tyrosine-protein phosphatase non-receptor type 1 (Homo sapiens) (UniProt P18031); experiment: Reversible inhibition of full length recombinant human PTP1B assessed as recovery of enzyme activity up to 50 uM using pNPP as substrate preincubated for 1 hr followed by substrate addition by spectrophotometric method; design: scale not given: the % may be the effect or the level left
T2 sequence (whole entry): T1 sequence (P18031 whole entry)

[3] = target: T1, Tyrosine-protein phosphatase non-receptor type 1; experiment: Competitive inhibition of full length recombinant human PTP1B assessed as enzyme-inhibitor complex using pNPP as substrate by double reciprocal plot method
HepG2 = experiment: Cytotoxicity against human HepG2 cells assessed as reduction in cell viability at 25 uM after 24 hrs by MTT assay; format: cell-based; details: hepg2, 24 h
C2C12 = experiment: Cytotoxicity against mouse C2C12 cells assessed as reduction in cell viability after 24 hrs by MTT assay; format: cell-based; details: c2c12, 24 h
[4] = target: T2, Tyrosine-protein phosphatase non-receptor type 1 (Homo sapiens); experiment: Inhibition of PTP1B in human HepG2 cells assessed as increase in phosphorylation of IRbeta at Tyr1162/1163 residues at 50 uM after 30 mins by Western blot method; format: cell-based
[5] = target: T2, Tyrosine-protein phosphatase non-receptor type 1 (Homo sapiens); experiment: Inhibition of PTP1B in human HepG2 cells assessed as increase in phosphorylation of Akt at Ser473 residue at 50 uM after 30 mins by Western blot method; format: cell-based
[6] = target: T3, Tyrosine-protein phosphatase non-receptor type 1 (Mus musculus) (UniProt P35821); experiment: Inhibition of PTP1B in mouse C2C12 cells assessed as increase in phosphorylation of IRbeta at Tyr1162/1163 residues at 50 uM after 30 mins by Western blot method; format: cell-based
T3 sequence (whole entry): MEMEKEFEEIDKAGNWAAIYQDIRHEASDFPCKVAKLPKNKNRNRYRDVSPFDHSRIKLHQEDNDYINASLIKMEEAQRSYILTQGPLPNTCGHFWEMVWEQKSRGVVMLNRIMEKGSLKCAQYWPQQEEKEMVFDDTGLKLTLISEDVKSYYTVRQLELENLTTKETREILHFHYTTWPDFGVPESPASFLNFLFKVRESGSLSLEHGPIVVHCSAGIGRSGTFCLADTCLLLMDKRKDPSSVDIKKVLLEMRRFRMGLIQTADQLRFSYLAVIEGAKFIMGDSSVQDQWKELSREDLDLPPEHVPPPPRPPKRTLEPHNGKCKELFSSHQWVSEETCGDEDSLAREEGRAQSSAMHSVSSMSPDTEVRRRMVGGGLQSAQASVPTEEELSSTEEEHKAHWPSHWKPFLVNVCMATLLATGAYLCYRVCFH

[7] = target: T3, Tyrosine-protein phosphatase non-receptor type 1 (Mus musculus); experiment: Inhibition of PTP1B in mouse C2C12 cells assessed as increase in phosphorylation of Akt at Ser473 residue at 50 uM after 30 mins by Western blot method; format: cell-based
NCTC-2544 [8] = experiment: Cytotoxicity against human NCTC-2544 cells assessed as reduction in cell viability at 10 uM by MTT assay; format: cell-based; details: nctc-2544, 10 µM
[9] = target: T2, Tyrosine-protein phosphatase non-receptor type 1 (Homo sapiens); experiment: Irreversible inhibition of full length recombinant human PTP1B assessed as recovery of enzyme activity up to 50 uM using pNPP as substrate preincubated for 1 hr followed by substrate addition by spectrophotometric method; design: scale not given: the % may be the effect or the level left
[10] = target: T1, Tyrosine-protein phosphatase non-receptor type 1; experiment: Mixed non-competitive inhibition of full length recombinant human PTP1B assessed as enzyme-substrate-inhibitor complex using pNPP as substrate by double reciprocal plot method
[11] = target: T2, Tyrosine-protein phosphatase non-receptor type 1 (Homo sapiens); experiment: Mixed-type inhibition of full length recombinant human PTP1B assessed as enzyme-substrate-inhibitor complex at 3 to 9 uM using pNPP as substrate by double reciprocal plot method
NCTC-2544 [12] = experiment: Anti-inflammatory activity in IFN-gamma and histamine-stimulated human NCTC-2544 cells assessed as reduction in ICAM-1 protein expression by Western blot method; format: functional, cell-based
NCTC-2544 [13] = experiment: Cytotoxicity against human IFN-gamma and histamine-stimulated NCTC-2544 cells assessed as reduction in cell viability at 10 uM by MTT assay; format: cell-based; details: nctc-2544, 10 µM
NCTC-2544 [14] = experiment: Anti-inflammatory activity in IFN-gamma and histamine-stimulated human NCTC-2544 cells assessed as reduction in iNOS protein expression by Western blot method; format: functional, cell-based
NCTC-2544 [15] = experiment: Anti-inflammatory activity in IFN-gamma and histamine-stimulated human NCTC-2544 cells assessed as reduction in COX-2 protein expression by Western blot method; format: functional, cell-based
[16] = target: T2, Tyrosine-protein phosphatase non-receptor type 1 (Homo sapiens); experiment: Mixed-type inhibition of full length recombinant human PTP1B assessed as enzyme-substrate-inhibitor complex at 3 to 7.5 uM using pNPP as substrate by double reciprocal plot method
[17] = target: T2, Tyrosine-protein phosphatase non-receptor type 1 (Homo sapiens); experiment: Inhibition of PTP1B in human HepG2 cells assessed as increase in phosphorylation of IRbeta at Tyr1162/1163 residues at 50 uM by Western blot method; format: cell-based; details: TDE = time-dependent effect
[18] = target: T2, Tyrosine-protein phosphatase non-receptor type 1 (Homo sapiens); experiment: Inhibition of PTP1B in human HepG2 cells assessed as increase in phosphorylation of IRbeta at Tyr1162/1163 residues at 50 uM after 180 mins by Western blot method; format: cell-based
[19] = target: T2, Tyrosine-protein phosphatase non-receptor type 1 (Homo sapiens); experiment: Competitive inhibition of full length recombinant human PTP1B assessed as enzyme-inhibitor complex up to 8 uM using pNPP as substrate by double reciprocal plot method
[20] = target: T2, Tyrosine-protein phosphatase non-receptor type 1 (Homo sapiens); experiment: Competitive inhibition of full length recombinant human PTP1B assessed as enzyme-inhibitor complex up to 6 uM using pNPP as substrate by double reciprocal plot method

SMILES: O=C(O)c1ccc(CN2C(=O)/C(=C/c3ccc(OCc4ccccc4)cc3)S/C2=N\c2ccc(F)cc2)cc1
- IC50 [1]: 1.9 µM
- Activity [2]: 75 to 100%
- Ki [3]: 1.4 µM
- Activity (HepG2): Non-Toxic
- Activity (C2C12): Non-Toxic
- inhibition [4]: Active
- inhibition [5]: Active
- inhibition [6]: Active
- inhibition [7]: inactive
- Activity (NCTC-2544 [8]): Toxic

SMILES: O=C(O)c1ccc(CN2C(=O)/C(=C/c3cccc(OCc4ccccc4)c3)S/C2=N\c2ccc(F)cc2)cc1
- IC50 [1]: 4.2 µM
- Activity [9]: 10 to 50%
- Ki [10]: 1500 nM
- Activity (HepG2): Non-Toxic
- Activity (C2C12): Non-Toxic
- inhibition [4]: Active
- inhibition [5]: Active
- inhibition [6]: Active
- inhibition [7]: inactive
- Activity (NCTC-2544 [8]): Toxic

SMILES: O=C(O)c1ccc(CN2C(=O)/C(=C/c3cccc(Oc4ccccc4)c3)SC2=S)cc1
- IC50 [1]: 7.1 µM
- Activity [2]: 75 to 100%
- inhibition [11]: Active
- Activity (HepG2): Non-Toxic
- Activity (C2C12): Non-Toxic
- inhibition [4]: inactive
- Activity (NCTC-2544 [12]): Active
- Activity (NCTC-2544 [8]): Non-Toxic
- Activity (NCTC-2544 [13]): Non-Toxic
- Activity (NCTC-2544 [14]): Active
- Activity (NCTC-2544 [15]): Active

SMILES: O=C(O)c1ccc(CN2C(=O)/C(=C/c3cccc(OCCc4ccccc4)c3)S/C2=N\c2ccc(F)cc2)cc1
- IC50 [1]: 14.5 µM
- Activity [9]: 10 to 50%
- Ki [10]: 2300 nM
- Activity (HepG2): Non-Toxic
- Activity (C2C12): Non-Toxic
- inhibition [6]: Active
- inhibition [7]: inactive
- Activity (NCTC-2544 [8]): Toxic

SMILES: O=C(O)c1ccc(CN2C(=O)/C(=C/c3ccc(OCc4ccccc4)cc3)SC2=S)cc1
- IC50 [1]: 5 µM
- Activity [2]: 75 to 100%
- inhibition [16]: Active
- Activity (HepG2): Non-Toxic
- Activity (C2C12): Non-Toxic
- inhibition [4]: inactive
- Activity (NCTC-2544 [12]): Active
- Activity (NCTC-2544 [8]): Non-Toxic
- Activity (NCTC-2544 [13]): Non-Toxic
- Activity (NCTC-2544 [14]): Active
- Activity (NCTC-2544 [15]): Active

SMILES: O=C(O)c1ccc(CN2C(=O)/C(=C/c3ccc(Oc4ccccc4)cc3)S/C2=N\c2ccc(F)cc2)cc1
- IC50 [1]: 5.1 µM
- Activity [9]: 10 to 50%
- Ki [3]: 9.9 µM
- Activity (HepG2): Non-Toxic
- Activity (C2C12): Non-Toxic
- inhibition [17]: Tde
- inhibition [18]: inactive
- inhibition [5]: Active
- inhibition [6]: Active
- inhibition [7]: Active
- Activity (NCTC-2544 [8]): Toxic

SMILES: O=C(O)c1ccc(CN2C(=O)/C(=C/c3cccc(OCc4ccccc4)c3)SC2=S)cc1
- IC50 [1]: 5.7 µM
- Activity [2]: 75 to 100%
- inhibition [19]: Active
- Activity (HepG2): Non-Toxic
- Activity (C2C12): Non-Toxic
- inhibition [4]: inactive
- Activity (NCTC-2544 [12]): Active
- Activity (NCTC-2544 [8]): Non-Toxic
- Activity (NCTC-2544 [13]): Non-Toxic
- Activity (NCTC-2544 [14]): Active
- Activity (NCTC-2544 [15]): Active

SMILES: O=C(O)c1ccc(CN2C(=O)/C(=C/c3ccc(Oc4ccccc4)cc3)SC2=S)cc1
- IC50 [1]: 10.6 µM
- Activity [2]: 75 to 100%
- inhibition [11]: Active
- Activity (HepG2): Non-Toxic
- Activity (C2C12): Non-Toxic
- inhibition [4]: inactive
- Activity (NCTC-2544 [12]): Active
- Activity (NCTC-2544 [8]): Non-Toxic
- Activity (NCTC-2544 [13]): Non-Toxic
- Activity (NCTC-2544 [14]): Active
- Activity (NCTC-2544 [15]): inactive

SMILES: O=C(O)c1ccc(CN2C(=O)/C(=C/c3ccc(OCCc4ccccc4)cc3)S/C2=N\c2ccc(F)cc2)cc1
- IC50 [1]: 1.5 µM
- Activity [9]: 10 to 50%
- Ki [10]: 1000 nM
- Activity (HepG2): Non-Toxic
- Activity (C2C12): Non-Toxic
- inhibition [6]: Active
- inhibition [7]: inactive
- Activity (NCTC-2544 [8]): Toxic

SMILES: O=C(O)c1ccc(CN2C(=O)/C(=C/c3cccc(OCCc4ccccc4)c3)SC2=S)cc1
- IC50 [1]: 1.9 µM
- Activity [2]: 75 to 100%
- inhibition [20]: Active
- Activity (HepG2): Non-Toxic
- Activity (C2C12): Non-Toxic
- inhibition [4]: inactive
- Activity (NCTC-2544 [12]): Active
- Activity (NCTC-2544 [8]): Toxic
- Activity (NCTC-2544 [13]): Toxic
- Activity (NCTC-2544 [14]): Active
- Activity (NCTC-2544 [15]): Active

SMILES: O=C(O)c1ccc(CN2C(=O)/C(=C/c3ccc(OCCc4ccccc4)cc3)SC2=S)cc1
- IC50 [1]: 3.5 µM
- Activity [2]: 75 to 100%
- inhibition [19]: Active
- Activity (HepG2): Non-Toxic
- Activity (C2C12): Non-Toxic
- inhibition [4]: inactive
- Activity (NCTC-2544 [8]): Toxic
- Activity (NCTC-2544 [13]): Toxic
- Activity (NCTC-2544 [14]): Active
- Activity (NCTC-2544 [15]): Active
